Like-named read-outs stand apart in the source and are kept apart here.
Columns and labels:
[1] = Metabolic stability in pooled human liver microsomes with or without NADPH; assay type: in vitro ADME; details: pooled human liver microsomes 0.5 mg/mL in PBS, 1 uM test compound, 37° C.; for half-life at 1 uM: human, pooled human liver microsomes
Procedure: Pooled human liver microsomes in PBS at a concentration of 0.5 mg/mL was incubated with or without 1 mM NADPH for 70 min at 37° C. Test compound was added after 10 minutes to a final concentration of 1 uM. Samples were withdrawn at 0, 5, 15 and 60 minutes and added to test tubes containing acetonitrile, to stop the reaction, and with terfenadine, used as internal standard. After centrifugation at 10000×g for 5 minutes the supernatant was diluted 1:1 with 1% formic acid. Samples were separated on a reverse phase column and detected by triple quadrupole MSMS (Agilant model 6540). The concentration of the parent compound at the different time points was measured with an external standard curve using terfenadine as internal standard and the initial metabolic rate in the presence or absence of NADPH calculated.

[2] = target: T1, human recombinant AT2 receptor (Homo sapiens, UniProt P50052); experiment: biochemical
T1 sequence (P50052 1-363): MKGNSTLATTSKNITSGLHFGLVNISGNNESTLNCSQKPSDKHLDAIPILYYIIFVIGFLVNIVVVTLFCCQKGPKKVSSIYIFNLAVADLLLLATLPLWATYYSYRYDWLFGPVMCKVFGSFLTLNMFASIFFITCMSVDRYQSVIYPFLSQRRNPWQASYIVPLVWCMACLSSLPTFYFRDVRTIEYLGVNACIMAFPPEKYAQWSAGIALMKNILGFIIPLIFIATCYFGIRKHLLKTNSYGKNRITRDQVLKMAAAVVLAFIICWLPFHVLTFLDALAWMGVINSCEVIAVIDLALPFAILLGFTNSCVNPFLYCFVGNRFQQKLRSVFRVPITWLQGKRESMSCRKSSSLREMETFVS
Procedure: (§1) Compounds were evaluated for binding to the human recombinant AT2 and AT1 receptor according to Eurofins protocol ITEM26 and ITEM24 using a radiometric scintillation assay.

[3] = target: T2, human recombinant AT1 receptor (Homo sapiens, UniProt P30556); experiment: biochemical
T2 sequence (P30556 1-359): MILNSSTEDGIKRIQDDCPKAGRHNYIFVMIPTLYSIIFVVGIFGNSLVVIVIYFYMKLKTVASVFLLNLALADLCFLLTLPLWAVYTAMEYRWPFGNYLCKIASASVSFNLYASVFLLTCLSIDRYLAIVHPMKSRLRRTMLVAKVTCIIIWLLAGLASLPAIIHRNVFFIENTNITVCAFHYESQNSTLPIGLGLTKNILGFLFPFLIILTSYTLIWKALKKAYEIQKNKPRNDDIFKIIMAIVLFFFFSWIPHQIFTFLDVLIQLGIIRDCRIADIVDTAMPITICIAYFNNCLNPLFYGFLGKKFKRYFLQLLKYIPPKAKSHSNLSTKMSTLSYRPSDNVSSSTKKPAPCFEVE
Procedure: as §1

CYP2C9 = CYP2C9 (Homo sapiens, UniProt P11712); experiment: CYP inhibition in human liver microsomes (Eurofins protocol ITEMG232); assay type: in vitro ADME; parameters: using isoform-specific substrates incubated with human liver microsomes; tissue Eurofins ITEMG232; host or cells: human liver microsomes; details: substrate diclofenac; for inhibition at 10 µM: probe diclofenac, read-out: CYP2C9 Inh %; for CYP2C9 Inh %: 10 μM
Procedure: The following substrates were used; CYP1A phenacetin, CYP2B6 bupropion, CYP2C8 paclitaxel and amodiaquine, CYP2C9 diclofenac, CYP2C19 omeprazole, CYP2D6 dextromethorphan, CYP3A midazolam and testosterone.
At the end of the incubation, the formation of metabolite was monitored by HPLC-MS/MS as the peak area response.

[4] = target: T1, human recombinant AT2 receptor; experiment: Binding to AT2 receptor, radiometric scintillation assay (Eurofins protocol ITEM26 and ITEM24); details: read-out: AT2 IC50, ligand 125I CGP 42112A, 1, 10, 100 and 1000 nM, 2-4 h at 37° C.
Procedure: as §1

[5] = with 1 mM NADPH, read-out: T1/2, +NaDPH
[6] = without NADPH, read-out: T1/2, no NaDPH

Sequence of CYP2C9 (P11712 whole entry, canonical isoform): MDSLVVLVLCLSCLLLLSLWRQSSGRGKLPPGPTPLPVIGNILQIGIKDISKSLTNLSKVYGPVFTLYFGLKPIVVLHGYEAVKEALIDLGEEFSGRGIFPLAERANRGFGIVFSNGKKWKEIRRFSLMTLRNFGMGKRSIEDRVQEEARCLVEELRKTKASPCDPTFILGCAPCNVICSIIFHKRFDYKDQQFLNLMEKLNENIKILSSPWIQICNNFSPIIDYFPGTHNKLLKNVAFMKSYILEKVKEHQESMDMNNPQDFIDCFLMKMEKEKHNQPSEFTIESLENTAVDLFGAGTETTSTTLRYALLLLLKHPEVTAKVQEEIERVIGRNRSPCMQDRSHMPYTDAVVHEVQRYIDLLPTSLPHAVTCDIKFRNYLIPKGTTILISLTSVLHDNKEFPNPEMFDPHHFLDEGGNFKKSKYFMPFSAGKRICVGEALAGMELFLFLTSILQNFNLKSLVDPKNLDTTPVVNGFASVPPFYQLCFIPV

Row | half-life at 1 uM [1, 5] [min] | half-life at 1 uM [1, 6] [min] | IC50 [2] [nM] | IC50 [3] [nM] | inhibition at 10 µM (CYP2C9) [%] | Compound | T1/2, +NaDPH ([1]; with 1 mM NADPH) [min] | T1/2, no NaDPH ([1]; without NADPH) [min] | IC50 [4] [nM] | CYP2C9 Inh % (CYP2C9) [%]
1 | 1 | 12 | 4.1 | 9000 | 62.3 | Cc1nccn1Cc1ccc(-c2cc(CC(C)C)sc2S(=O)(=O)NC(=O)OCCOC(=O)C(C)(C)C)cc1F [Example 19, 2-((((3-(3-Fluoro-4-((2-methyl-1H-imidazol-1-yl)methyl)phenyl)-5-isobutylthiophen-2-yl)sulfonyl)carbamoyl)oxy)ethyl pivalate] | – | – | – | –
2 | – | – | – | – | – | COCCOC(=O)NS(=O)(=O)c1sc(CC(C)C)cc1-c1ccc(Cn2ccnc2C)c(F)c1.O=C(O)C(F)(F)F [Example 3] | >60 | >60 | 3.5 | 58
3 | – | – | – | – | – | CCOC(=O)NS(=O)(=O)c1sc(CC(C)C)cc1-c1ccc(Cn2ccnc2C(C)C)c(F)c1.O=C(O)C(F)(F)F [Example 8, Ethyl (3-(3-fluoro-4-((2-isopropyl-1H-imidazol-1-yl)methyl)phenyl)-5-isobutylthio-phen-2-yl)sulfonylcarbamate trifluoroacetic acid] | 46 | 53 | 3.5 | 58
4 | – | – | – | – | – | CCOC(=O)NS(=O)(=O)c1sc(CC(C)C)cc1-c1ccc(Cn2ccnc2CC)c(F)c1.O=C(O)C(F)(F)F [Example 7, Ethyl (3-(4-((2-ethyl-1H-imidazol-1-yl)methyl)-3-fluorophenyl)-5-isobutylthiophen-2-30 yl)sulfonylcarbamate trifluoroacetic acid] | 40 | 40 | 1.8 | 64
5 | – | – | – | – | – | Cc1nccn1Cc1c(F)cc(-c2cc(CC(C)C)sc2S(=O)(=O)NC(=O)OCCO)cc1F [Example 18, 2-Hydroxyethyl (3-(3,5-difluoro-4-((2-methyl-1H-imidazol-1-yl)methyl)phenv1)-5-isobutylthiophen-2-yl)sulfonylcarbamate] | 4 | >60 | 0.87 | 77.0
6 | – | – | – | – | – | CCc1nccn1Cc1ccc(-c2cc(CC(C)C)sc2S(=O)(=O)NC(=O)OCc2ccc(F)cc2)cc1F.O=C(O)C(F)(F)F [Example 6, 4-Fluorobenzyl (3-(4((2-ethyl-1H-imidazol-1-yl)methyl)-3-fluorophenyl)-5-isobutylthio-phen-2-yl)sulfonylcarbamate trifluoroacetic acid] | 7 | 50 | 1.8 | 72
7 | 4 | 4 | 1.82 | 2300 | 58.4 | CC(C)Cc1cc(-c2ccc(Cn3ccnc3C(C)(C)C)c(F)c2)c(S(=O)(=O)NC(=O)c2ccccn2)s1 [Example 27, N-((3-(4-((2-(Tert-Butyl)-1H-imidazol-1-yl)methyl)-3-fluorophenyl)-5-isobutylthio-phen-2-yl)sulfonyl)picolinamide] | – | – | – | –
8 | – | – | – | – | – | CCOC(=O)NS(=O)(=O)c1sc(CC(C)C)cc1-c1ccc(Cn2ccnc2C)c(F)c1.O=C(O)C(F)(F)F [Example 1, Ethyl (3-(3-fluoro-4-((2-methyl-1H-imidazol-1-yl)methyl)phenyl)-5-isobutylthiophen-2-yl)sulfonvicarbamate trifluoroacetic acid] | 50 | 60 | 2.4 | 64
